# Assay results reported in patent US11040036B2, “Pyruvate kinase activators for use in treating blood disorders” (Agios Pharmaceuticals, Inc., priority 2017, dated 2021).
# Key:
# [1] = target: T1, wild type PKR (Homo sapiens, UniProt P30613); assay: PKR mutant assay (AC50), wild type PKR; type: biochemical; conditions: wild type PKR enzyme; for AC50: read-out: PKR WT AC50
# Procedure: (§1) Example 11. PKR Mutant Assay
# (§2) PKR or PKR mutant enzyme solution was diluted into a reaction mix, which contains 1× buffer (100 mM KCl, 50 mM Tris pH 7.5, 5 mM MgCl2) as well as PEP (cont depends on enzyme), 180 μM NADH, 0.5 units LDH, 1 mM DTT, 0.03% BSA; final assay concentrations after 1.11 fold dilution are indicated.
# (§3) 2 μL of test compound was added into wells first, and then 180 μL reaction mix was added.
# (§4) Reactions mixture with test compound was assembled except for ADP, and plates were stored for 60 minutes at room temperature.
# (§5) 20 uL ADP was added to start reaction at room temperature and reaction progress was measured as changes in absorbance at 340 nm wavelength at room temperature.
# (§6) Test Compound Preparation:
# (§7) Test compound stock was made at 100× concentration in 100% DMSO (10 mM)
# (§8) 1 to 3 dilutions were made for 11 points (i.e. 50 μl of first concentration added to 100 μl 100% DMSO to yield 3.33 mM, 50 μl of this added to 100 μl DMSO to yield 1.11 mM, and so forth) • 1 to 100 dilution into assay (2 μl in 200 μl) yielded starting concentration of 100 μM, decreasing 3 fold for 11 points.
# (§9) Assay Buffer: 100 mM KCl, 50 mM Tris 7.5, 5 mM MgCl2, 1 ruM DTT, 0.03% BSA
# (§10) Reaction Mixture: PKR mutant enzyme: 40-400 ng/well; ADP: 0.2-1.65 mM; PEP: 0.1-0.5 mM; NADH:180 μM; LDH: 0.5 units (Sigma #59023); DTT: 1 mM; BSA: 0.03%.
# [2] = target: T1, wild type PKR; assay: Cell based ATP assay in purified red blood cells; set-up: endogenous in cells; host or cells: purified red blood cells from blood of healthy volunteers; conditions: RBCs, overnight at 37° C., ATP levels by Cell-Titer-Glo
# Procedure: Example 16. Red Blood Cell (RBC) Purification
# Fresh blood drawn from healthy volunteers into K2EDTA tubes was collected. Whole blood was pelleted by spinning at 500 g for 10 minutes. Cut transfusion bag port off of Purecell leukocyte reduction neofilter (Fisher NCO267633) one (1) inch above filter. Attach a 10 ml syringe barrel to the remaining cut tubing attached to neofilter. The plasma layer was removed from the pellet of the whole blood and the pellet was resuspended in 2× volume of phosphate buffered saline (PBS). Transfer 9 ml re-suspended blood cell pellet to prepared 10 ml syringe that is attached to the neofilter. Allow whole blood to gravity flow through filter until all fluid runs through upper tubing into filter disc. Add plunger to the syringe, remove syringe from clamp and invert the filter, then plunge air through the syringe filter system. Using a new 5 ml syringe, remove filtered RBCs from the bag by the syringe port and transfer purified RBCs to a 5 ml snap cap tube that has been incubated on ice. Spin 5 ml snap cap tube at 500 g for 10 minutes at 15 C, aspirate supernatant and resuspend in AGAM (1×PBS, 1% glucose, 170 mg/L adenine, 5.25 g/L mannitol) at a density of 4×10^9 cells/mL.
# Example 17. Cell Based ATP Assay
# For cell based ATP assays, the compound as described herein was prepared in 100% DMSO as a 10 mM stock. Serial dilutions (1:4) were performed in 96-well V-bottom storage plate and then added 1:100 to 96-well V-bottom plates containing AGAM. RBCs were diluted in AGAM media to a density of 1×10^7 cells/mL before added 90 μL/well to black clear bottom assay plates (final compound concentration at 0.1% DMSO concentration). Assay plates were sealed using aluminum foil seals and incubated overnight at 37° C. in a humidified chamber. ATP levels were read out using Cell-Titer-Glo (Promega).
# [3] = target: PKR R510Q (Homo sapiens, UniProt P30613, R510Q); assay: PKR mutant assay (AC50), PKR R510Q; type: biochemical; conditions: PKR R510Q mutant enzyme; for AC50: read-out: PK R510Q AC50
# Chain of PKR R510Q (P30613 whole entry R510Q): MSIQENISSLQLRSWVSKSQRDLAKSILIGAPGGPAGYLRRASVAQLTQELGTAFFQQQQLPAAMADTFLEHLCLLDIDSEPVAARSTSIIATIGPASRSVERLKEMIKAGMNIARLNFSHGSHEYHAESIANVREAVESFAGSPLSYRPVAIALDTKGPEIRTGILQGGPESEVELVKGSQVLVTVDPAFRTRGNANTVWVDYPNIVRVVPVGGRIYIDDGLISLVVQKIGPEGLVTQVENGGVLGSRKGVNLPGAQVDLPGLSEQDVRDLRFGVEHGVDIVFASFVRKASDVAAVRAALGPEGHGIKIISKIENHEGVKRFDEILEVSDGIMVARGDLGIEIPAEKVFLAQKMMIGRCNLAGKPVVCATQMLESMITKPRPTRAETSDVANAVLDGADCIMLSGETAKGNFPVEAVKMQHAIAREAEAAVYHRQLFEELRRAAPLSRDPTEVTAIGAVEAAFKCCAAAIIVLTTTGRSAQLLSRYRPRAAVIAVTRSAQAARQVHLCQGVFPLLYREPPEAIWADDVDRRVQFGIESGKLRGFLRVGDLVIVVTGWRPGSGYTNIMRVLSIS
# Procedure: as §1, §2, §3, §4, §5, §6, §7, §8, §9, §10
# [4] = target: PKR K410E (Homo sapiens, UniProt P30613, K410E); assay: PKR mutant assay (AC50), PKR K410E; type: biochemical; conditions: PKR K410E mutant enzyme
# Chain of PKR K410E (P30613 whole entry K410E): as the sequence (P30613 whole entry R510Q) above, with K410E, Q510R counted along it
# Procedure: as §1, §2, §3, §4, §5, §6, §7, §8, §9, §10
# T1 sequence (P30613 whole entry): as the sequence (P30613 whole entry R510Q) above, with Q510R counted along it
Compound,AC50 [1] [µM],AC50 [2] [µM],AC50 [3] [µM],AC50 [4] [µM],PKR WT AC50 [1],Cell based ATP assay AC50 [2],PK R510Q AC50 [3],PKR K410E AC50 [4]
Cn1c2nc(Cc3cc[nH]n3)sc2c2cnn(Cc3csc(C(N)=O)n3)c(=O)c21,< 0.3,≤ 1,< 0.3,< 0.3,–,–,–,–
Cn1c2nc(Cc3cc[nH]n3)sc2c2cnn(Cc3cncs3)c(=O)c21,< 0.3,≤ 1,< 0.3,< 0.3,–,–,–,–
Cn1c2nc(Cc3cc[nH]n3)sc2c2cnn(Cc3c[nH]c(N)n3)c(=O)c21,< 0.3,≤ 1,< 0.3,< 0.3,–,–,–,–
Cn1c2nc(Cc3cc[nH]n3)sc2c2cnn(Cc3[nH]ncc3Cl)c(=O)c21,< 0.3,≤ 1,< 0.3,< 0.3,–,–,–,–
Cn1c2nc(Cc3c[nH]nn3)sc2c2cnn(Cc3csc(N)n3)c(=O)c21,< 0.3,≤ 1,< 0.3,< 0.3,–,–,–,–
Cn1c2nc(Cc3c[nH]nn3)sc2c2cnn(Cc3c[nH]nn3)c(=O)c21,< 0.3,≤ 1,< 0.3,< 0.3,–,–,–,–
Cn1c2nc(Cc3csc(CO)n3)sc2c2cnn(Cc3cn[nH]n3)c(=O)c21,< 0.3,≤ 1,< 0.3,< 0.3,–,–,–,–
Cn1c2nc(C(O)c3cc[nH]n3)sc2c2cnn(Cc3cc[nH]n3)c(=O)c21 (stereo not drawn),< 0.3,≤ 1,< 0.3,< 0.3,–,–,–,–
Cn1c2nc(Cc3cc[nH]n3)sc2c2cnn(Cc3n[nH]cc3F)c(=O)c21,< 0.3,≤ 1,< 0.3,< 0.3,–,–,–,–
Cn1c2nc(Cn3cncn3)sc2c2cnn(Cc3cc[nH]n3)c(=O)c21,< 0.3,≤ 1,< 0.3,< 0.3,–,–,–,–
Cn1c2nc(Cn3ccnc3)sc2c2cnn(Cc3cc[nH]n3)c(=O)c21,< 0.3,≤ 1,0.301 to 0.8,< 0.3,–,–,–,–
Cn1c2nc(Cn3cnnc3)sc2c2cnn(Cc3cc[nH]n3)c(=O)c21,> 0.8,> 1,> 0.8,> 0.8,–,–,–,–
Cn1c2nc(Cc3cc[nH]n3)sc2c2cnn(Cc3ccc(F)c(Br)n3)c(=O)c21,< 0.3,≤ 1,< 0.3,< 0.3,–,–,–,–
Cn1c2nc(Cc3ncsc3Cl)sc2c2cnn(Cc3c[nH]nn3)c(=O)c21,< 0.3,≤ 1,< 0.3,< 0.3,–,–,–,–
Cn1c2nc(Cc3ncsc3Cl)sc2c2cnn(Cc3cc[nH]n3)c(=O)c21,< 0.3,≤ 1,< 0.3,< 0.3,–,–,–,–
Cn1c2nc(Cn3cccn3)sc2c2cnn(Cc3cc[nH]n3)c(=O)c21,< 0.3,≤ 1,< 0.3,< 0.3,–,–,–,–
Cn1c2nc([C@H](O)c3cc[nH]n3)sc2c2cnn(Cc3cc[nH]n3)c(=O)c21,< 0.3,≤ 1,< 0.3,< 0.3,–,–,–,–
Cn1c2nc([C@@H](O)c3cc[nH]n3)sc2c2cnn(Cc3cc[nH]n3)c(=O)c21,< 0.3,≤ 1,< 0.3,< 0.3,–,–,–,–
Cn1c2nc(Cc3cc[nH]n3)sc2c2cnn(Cc3cc(Cl)[nH]n3)c(=O)c21,< 0.3,≤ 1,< 0.3,< 0.3,–,–,–,–
COc1ccc(Cn2ncc3c4sc(Cc5cc[nH]n5)nc4n(C)c3c2=O)nc1N,< 0.3,≤ 1,< 0.3,< 0.3,–,–,–,–
Cn1nncc1Cn1ncc2c3sc(Cc4cc[nH]n4)nc3n(C)c2c1=O,> 0.8,> 1,> 0.8,> 0.8,–,–,–,–
Cn1ncc(Cn2ncc3c4sc(Cc5cc[nH]n5)nc4n(C)c3c2=O)n1,< 0.3,≤ 1,< 0.3,< 0.3,–,–,–,–
Cn1ccc(Cc2nc3c(s2)c2cnn(Cc4ccn[nH]4)c(=O)c2n3C)n1,< 0.3,≤ 1,< 0.3,< 0.3,–,–,–,–
Cc1scnc1Cc1nc2c(s1)c1cnn(Cc3ccn[nH]3)c(=O)c1n2C,< 0.3,≤ 1,< 0.3,< 0.3,–,–,–,–
Cn1c2nc(Cc3nc(N)sc3F)sc2c2cnn(Cc3cc[nH]n3)c(=O)c21,< 0.3,≤ 1,< 0.3,< 0.3,–,–,–,–
Cn1c2nc(Cn3ccc([N+](=O)[O-])n3)sc2c2cnn(Cc3cc[nH]n3)c(=O)c21,< 0.3,≤ 1,< 0.3,< 0.3,–,–,–,–
Cn1c2nc(Cn3ccnn3)sc2c2cnn(Cc3cc[nH]n3)c(=O)c21,< 0.3,≤ 1,< 0.3,< 0.3,–,–,–,–
Cn1c2nc(Cn3cncn3)sc2c2cnn(Cc3n[nH]c(=O)[nH]3)c(=O)c21,–,–,–,–,No Fit,No Fit,No Fit,No Fit

# The next lines start with the values.
AC50 [1] [µM],AC50 [2] [µM],AC50 [3] [µM],AC50 [4] [µM],PKR WT AC50 [1],Cell based ATP assay AC50 [2],PK R510Q AC50 [3],PKR K410E AC50 [4],Compound
< 0.3,≤ 1,< 0.3,< 0.3,–,–,–,–,Cc1cccc(Cn2ncc3c4sc(Cc5cc[nH]n5)nc4n(C)c3c2=O)n1
< 0.3,≤ 1,< 0.3,< 0.3,–,–,–,–,Cn1c2nc(Cc3cccc(N)n3)sc2c2cnn(Cc3cc[nH]n3)c(=O)c21
< 0.3,≤ 1,< 0.3,< 0.3,–,–,–,–,Cn1c2nc(Cc3cccc(N)n3)sc2c2cnn(Cc3cscn3)c(=O)c21
< 0.3,≤ 1,< 0.3,< 0.3,–,–,–,–,Cn1c2nc(Cc3ccccn3)sc2c2cnn(Cc3cccc(N)n3)c(=O)c21
< 0.3,≤ 1,< 0.3,< 0.3,–,–,–,–,Cn1c2nc(Cc3c[nH]nn3)sc2c2cnn(Cc3cccc(N)n3)c(=O)c21
< 0.3,≤ 1,< 0.3,< 0.3,–,–,–,–,Cn1c2nc(Cc3cscn3)sc2c2cnn(Cc3c[nH]nn3)c(=O)c21
< 0.3,≤ 1,< 0.3,< 0.3,–,–,–,–,Cn1c2nc(Cc3cscn3)sc2c2cnn(Cc3cccc(N)n3)c(=O)c21
< 0.3,≤ 1,< 0.3,< 0.3,–,–,–,–,Cn1c2nc(Cc3csc(CO)n3)sc2c2cnn(Cc3cccc(N)n3)c(=O)c21
< 0.3,≤ 1,< 0.3,< 0.3,–,–,–,–,Cn1c2nc(Cc3cc[nH]n3)sc2c2cnn(Cc3nc(N)ccc3F)c(=O)c21
< 0.3,≤ 1,< 0.3,< 0.3,–,–,–,–,CN(C)c1cccc(Cn2ncc3c4sc(Cc5cc[nH]n5)nc4n(C)c3c2=O)n1
< 0.3,≤ 1,< 0.3,< 0.3,–,–,–,–,CN(C)c1cccc(Cc2nc3c(s2)c2cnn(Cc4cc[nH]n4)c(=O)c2n3C)n1
< 0.3,≤ 1,< 0.3,< 0.3,–,–,–,–,Cn1c2nc(Cc3cc[nH]n3)sc2c2cnn(Cc3ccsn3)c(=O)c21
< 0.3,≤ 1,< 0.3,< 0.3,–,–,–,–,Cn1c2nc(Cc3nc(N)ccc3F)sc2c2cnn(Cc3cc[nH]n3)c(=O)c21
< 0.3,≤ 1,< 0.3,< 0.3,–,–,–,–,Cn1ccc(Cn2ncc3c4sc(Cc5cccc(N)n5)nc4n(C)c3c2=O)n1
